In patent publication US11634381B2, “RUNX2 transcription factor inhibitors and uses thereof” (University of Maryland, Baltimore, priority 2015, dated 2023):

Experiments:
[1] = tested on: BC cell lines; assay: Clonogenic survival assay; assay type: cell-based, human; conditions: 50 μM
Method: Cells were plated on 6-well plates (200˜500 cells/well). After compound 1 (50 μM) treatment, cells were incubated for 2-3 weeks without changing media. Colonies were fixed in Methanol-Acetic Acid solution (3:1) and stained with crystal violet (0.5%). After washing, colonies were photographed and counted.

[2] = tested on: BC cells; assay: Anchorage-independent cell growth assay (soft agar); assay type: cell-based, human; conditions: 50 μM
Method: Cells (10,000) were mixed in 1 ml of 0.3% low-melting agarose over a 0.6% agar bottom layer in normal growth media. The medium (600 μl) with or without compound 1 (50 μM) on soft agar was changed three times a week for 2-3 weeks. Images of MDA-231 and MCF7 were taken using Nikon Eclipse TE-2000S microscope with Zen Pro image software, and of MDA-468 using Olympus CKX41 microscope with Q-Capture Pro 7 image software at indicated magnifications under the same exposure settings for corresponding vehicle and drug treatments.

[3] = tested on: MCF7 RUNX2 Tet.OFF cells; assay: Suspension culture tumorsphere formation; assay type: cell-based, human; conditions: for tumorsphere diameter: 50 μM compound 1, 12 days
Method: MCF7 Tet.OFF cells were grown in the presence (+Dox, RUNX2 negative) or absence (−Dox, RUNX2 positive) of doxycycline for 3 days. Cells were then scraped and counted. 60,000 cells were plated in each well of a 6-well ultra-low attachment plate (Corning; 3471) in Promocell Basal Medium (Promocell; c-22211) complete with Supplement Mix (Promocell; c-39216). Cells were then treated with or without 2 ng/mL TGFβ (R&D Systems; 240-B-002). After growth for 10-15 days, wells were photographed and tumorsphere diameters were measured from photographic images (mm). Colony diameters were calculated using the formula: (L+W)/2. Representative photographs were obtained at 4× magnification. […] For TAZ siRNA knockdown experiments, TAZ siRNA was transfected (as below) into MCF7 Tet.OFF cells and 24 hr later cells were scraped and placed into suspension as described above. Small-Interfering RNA (siRNA) pool targeting RUNX1, RUNX2, and non-targeting control were purchased from Dharmacon, and transfected into cells using RNAiMAX Reagent (Invitrogen). Western blot analysis was performed 48 hrs after transfection.

[4] = tested on: MCF7-tet-off (-Doxy), MDA-231, MDA-468 and MCF7 cells; assay: Tumorsphere assay; assay type: cell-based, human; conditions: 50 μM
Method: Single cell suspensions (100,000 cells/well) wereplatedin 6-well ultra-low attachment plates (Corning) with 5 ml of EGM-2 supplemented with bullet kit (Lonza) and 2% FBS. compound 1 (50 μM) was added at the day of the plating or 4 days after plating. Tumorspheres were continuously photographed for 18 days and counted at the final day. Spheres were counted at 9 fields per well and averaged from triplicate.

[5] = tested on: MDA-231 cells; assay: Cell-electrode impedance invasion assay (xCELLigence); assay type: cell-based, human; conditions: MDA-231, 50 μM, 48 hrs
Method: Real-time monitoring of cellular invasion was examined using an electrical impedance assay with an xCELLigence RTCA SP real-time cell-sensing device (Roche Applied Science). Matrigel (20 μl of 0.5 mg/ml) was pre-coated in the upper chamber of CIM plates and polymerized for 4 h and MDA-231 cells (75,000) were seeded onto wells containing growth medium with vehicle (0.1% DMSO) or compound 1 (50 μM). Impedance-based signals were measured every 5 minutes for 48 hrs according to the manufacturer's instructions. The invasive activity is expressed as the cell index (mean±SD) of duplicate wells. Three independent experiments were performed. In parallel, MDA-231 cells were plated onto wells with serum-free medium and the assay was performed.

[6] = tested on: RUNX2 transcriptional activity; assay: Luciferase-promoter reporter assay of RUNX2 target genes; assay type: cell-based, human
Method: Cells were plated in 96-well plates (30,000 cells/well) and incubated overnight. Cells were co-transfected with indicated luciferase-reporter plasmids (25 ng/well) and pSV-Renilla-Luc (Promega) (15 ng/well) for 6 hrs and compound 1 ([…]) was further treated for 18-48 hrs. COX-2 (P2-274)-Luc (−170bp˜+104bp) and control plasmids (PXP2-Luc) were kindly provided byDr. Miguel A. Iñiguez (Universidad Autónoma de Madrid, Spain), and pNF-kb-Luc was from Dr. Hancai Dan (University of Maryland). Luciferase assay was performed using the Dual-Glo Luciferase Assay Systems as per manufacturer's recommendation (Promega).

[7] = tested on: Complex I; assay: Complex I activity; assay type: cell-based, human; conditions: MDA-468 and MCF7 cells, 50 μM, 1-3 days
Method: In FIG. 26A MDA-231, MDA-468, MCF7, and BT-474 breast cancer cells were treated with compound 1 (50 μM) for 1-3 days. Complex I activity increased in MDA-468 and MCF7 cells. In FIG. 26B T47D-Vector control or T47D-RUNX2-clone #10 overexpressing cells; MCF7-Vector Control or RUNX2-clone #2 overexpressing cells were treated with 50 μM compound 1 for 1 day.

[8] = biological target: RUNX2 (Homo sapiens, UniProt Q13950); assay: D-ELISA DNA binding assay; parameters: endogenous in cells; conditions: read-out: IC50 in D-ELISA DNA binding assays (RUNX2 DNA binding)
Sequence of RUNX2 (Q13950 whole entry): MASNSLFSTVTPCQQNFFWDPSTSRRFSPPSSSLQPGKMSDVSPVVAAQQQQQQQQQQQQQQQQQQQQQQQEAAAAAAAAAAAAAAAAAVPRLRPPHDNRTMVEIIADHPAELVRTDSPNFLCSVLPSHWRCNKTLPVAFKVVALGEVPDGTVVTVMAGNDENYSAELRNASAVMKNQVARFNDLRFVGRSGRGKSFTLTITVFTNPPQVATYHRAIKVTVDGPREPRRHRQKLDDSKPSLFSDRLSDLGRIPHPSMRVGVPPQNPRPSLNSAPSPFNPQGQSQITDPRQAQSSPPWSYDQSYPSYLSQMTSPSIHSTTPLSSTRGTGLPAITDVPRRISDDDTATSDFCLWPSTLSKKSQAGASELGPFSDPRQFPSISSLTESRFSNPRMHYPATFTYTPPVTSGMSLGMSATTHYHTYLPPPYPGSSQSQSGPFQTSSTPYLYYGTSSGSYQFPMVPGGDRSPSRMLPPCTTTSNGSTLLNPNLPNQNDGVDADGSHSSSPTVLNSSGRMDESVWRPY
Method: A microtiter plate-based D-ELISA was performed as described. Briefly, nuclear proteins were isolated from HBME-1 cells that express all three RUNX proteins and bound to double-stranded DNA oligonucleotides of human osteocalcin and MMP13 (forward primer: 5′-TTCTACCACAAACCACACTCGTTCTACCACAAACCACACTCGTTCTACCACAAACCACACTCG-Biotin-3′, SEQ ID NO: 4 and reverse primer: 5′-CGAGTGTGGTTTGTGGTAGAACGAGTGTGGTTTGTGGTAGAACGAGTGTGGTTTGTGGTAGAA-Biotin-3′, SEQ ID NO: 5). Vehicle (0.05% DMSO) or compound 1 at different concentrations were incubated with the proteins and DNA oligonucleotide mixture in Avidin-coated 96-well plates. DNA-bound RUNX proteins were captured with specific antibodies (Cell Signaling Technologies). Primary and secondary antibody dilution was 1:500 and 1:10,000, respectively.

## O=C(O)C1C2C=CC(C2)C1C(=O)Nc1ccc(Cl)c(Cl)c1 (stereo not shown) [compound 1, 3-(N-(3,4-dichlorophenyl)carbamoyl)-5-norbornene-2-carboxylic acid]
[1]; 2˜3 weeks, 11 out of 13 BC cells
  clonogenic survival: less than 50%
[1]; 2˜3 weeks, BT549, HCC70, MDA-468, MCF7, HCC361, BT474
  clonogenic cell survival: less than 10%
[1]; 2˜3 weeks, MDA-231 and Hs578t
  clonogenic survival: > 50%
[1]; 2˜3 weeks, MDA-468 and BT474
  clonogenic survival: did not survive
[1]; T47D-Empty and T47D-RUNX2 cells, 14 days
  clonogenicity: dramatically diminished
[2]; 2-3 weeks
  anchorage-independent cell growth: strongly inhibited
[2]; MDA-231, MCF7, MDA-468
  colony size relative to control: < 1/10
[3]; RUNX2 negative cells
  tumorsphere diameter: 6.37±1.78 mm
[3]; RUNX2 positive cells, 50 μM compound 1
  fold inhibition of tumorsphere diameter relative to vehicle: ~4 fold
[3]; RUNX2 positive cells
  tumorsphere diameter: 4.83±1.87 mm
[4]
  size and number of tumorspheres: dramatically decreased
[5]
  cell index (mean±SD): 1.6636±0.1845
[6]; BT474 cells that do not express RUNX2, 48 hrs
  MMP13 promoter activity: did not attenuate
[6]; MCF7-RUNX2 cells
  repression of MMP13 promoter-Luc activity: about 50%
[6]; MDA-231 cells that express RUNX2, 48 hrs
  MMP13 promoter activity: decreased significantly
[6]; T47D-Empty and MCF7-Empty
  promoter-Luc activities of control cells: little effect
[6]; T47D-RUNX2 and MCF7-RUNX2 cells, 48 hrs
  promoter-luciferase activities of MMP13, VEGF and OC: dramatic decrease
[6]; T47D-RUNX2 cells
  RUNX2-repressed p21 promoter activity: reactivated
  p6xOSE2-Luc activity: slightly but significantly reduced
[6]; T47D-RUNX2 cells, 2 μM
  MMP13 promoter-Luc activity: almost completely blocked
[7]
  Complex I activity: increased
[8]
  IC50: 10 nM
